In patent USRE39497E1, “Storage of materials” (Nektar Therapeutics, priority 1989, dated 2007):

What was measured:
[1] = L. Slade and H. Levine, Pure Appl. Chem. 60 1841 (1988); cited from earlier work
[2] = Glass transition temperature Tg (differential scanning calorimeter); type: physicochemical; settings: determined by the applicant
Source text: Tg values can be determined with a differential scanning calorimeter and can be detected as a point at which a plot of heat input against temperature passes through an inflection point—giving a maximum of the first temperature derivative.

| Tg value [2] [°C] | Molecule | Tg [1] [°C] |
| --- | --- | --- |
| – | OC[C@H]1O[C@H](O[C@H]2[C@H](O)[C@@H](O)C(O)O[C@@H]2CO)[C@H](O)[C@@H](O)[C@@H]1O (mixture of isomers) [maltose] | 43 |
| 55 | OC[C@H]1O[C@@](CO)(O[C@H]2O[C@H](CO)[C@@H](O)[C@H](O)[C@H]2O)[C@@H](O)[C@@H]1O [sucrose] | – |
| – | maltotriose | 76 |
